Among the data in patent US20240174690A1, “ANNULATED 2-AMINO-3-CYANO THIOPHENES AND DERIVATIVES FOR THE TREATMENT OF CANCER” (BOEHRINGER INGELHEIM INTERNATIONAL GMBH, priority 2021, published 2024) are IC50 values, retold here.

Usually IC50 stands for the point on the concentration scale where inhibition reaches its midpoint.

SMILES strings stand for the structures.

The target of one experiment is KRAS (G12C)::SOS1 (Homo sapiens (Human), UniProt P01116, C118S/C51S/C80L/G12C). Put plainly: KRAS::SOS1 AlphaScreen binding assay, KRAS G12C. The gist of the method: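 Compounds (up to 100 μM, eleven fivefold dilutions in duplicate) were incubated 30 min with KRAS 1-169 (10 nM, or 7.5 nM for G12C), GST-SOS1 564-1049 (5 nM for G12D/G12C, 10 nM for others) and 10 μM GDP in PBS buffer with BSA and Tween. Donor/acceptor beads were then added for 60 min at room temperature, and IC50 came from a 4-parameter fit of the AlphaScreen signal.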
On the technique in general: Bead proximity is the source of the signal in Alpha formats.

Experiment [1] deals with KRAS G12D-dependent Ba/F3 cells. Put plainly: Ba/F3 proliferation assay, KRAS G12D. The experiment is classed as cell-based. The settings on record: Mus musculus, BaF3, 72 h, AlamarBlue. In short, it runs like this:
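Transforming KRAS G12 mutants replaced IL-3 dependence in retrovirally engineered Ba/F3 cells, with puromycin omitted about ten days before testing. Growth under compound was quantified with an AlamarBlue fluorescent viability stain, in duplicate, by curve fitting.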

The next experiment deals with AsPC-1 cells. Put plainly: AsPC-1 CTG proliferation assay (120 h) (pancreatic cancer, G12D). The settings on record: Homo sapiens, ASPC1. In kind it is cell-based. In short, it runs like this:
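AsPC-1 cells (KRAS G12D), 2000/well in RPMI with 10% FCS, seeded overnight, then treated with compound for 120 h at 37 °C. Viability by CellTiter-Glo luminescence as percent of DMSO control. IC50 from a four-parameter non-linear fit.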

Chain of KRAS (G12C)::SOS1 (P01116 other isoform, or with tags, fused parts or gaps G12C/C51S/C80L/C118S): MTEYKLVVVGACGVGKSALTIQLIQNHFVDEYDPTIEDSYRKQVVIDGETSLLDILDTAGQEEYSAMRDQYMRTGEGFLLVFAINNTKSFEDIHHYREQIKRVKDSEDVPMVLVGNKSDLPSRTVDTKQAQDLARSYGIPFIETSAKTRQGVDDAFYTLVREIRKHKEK

On to `CC(C)NC(=O)Cc1ccn(-c2cc(O[C@@H](C)[C@@H]3CCCN3C)nc(-c3noc4c3CCC[C@@]43CCCc4sc(N)c(C#N)c43)n2)n1` [II-182], for which the IC50 at KRAS (G12C)::SOS1 worked out at 1 nM; in experiment [1], 16 nM; with AsPC-1 cells it was 188 nM.
Taken in the same sequence, the figures for `C[C@H](Oc1cc(N2CCN(C)C3(CC3)C2)nc(-c2noc3c2CCC[C@@]32CCCc3sc(N)c(C#N)c32)n1)[C@@H]1CCCN1C` [II-171] were 5 nM, 10 nM and 295 nM.
The like results for `C[C@H](Oc1cc(-n2cc(C(=O)N(C)C)nn2)nc(-c2noc3c2CCC[C@@]32CCCc3sc(N)c(C#N)c32)n1)[C@@H]1CCCN1C` [II-132] were, in that order, 2 nM, 99 nM and 5110 nM.
Taken in the same sequence, the figures for `C[C@H](Oc1cc(N2C[C@@H]3[C@@H](N)[C@@H]3C2)nc(-c2noc3c2CCC[C@@]32CCCc3sc(N)c(C#N)c32)n1)[C@@H]1CCCN1C` [II-167] were 5 nM, 614 nM and 4230 nM.
Regarding `C[C@H](Oc1cc(-n2nccc2-c2ccncc2)nc(-c2noc3c2CCC[C@@]32CCCc3sc(N)c(C#N)c32)n1)[C@@H]1CCCN1C` [II-131], the IC50 is 145 nM in experiment [1] and 3520 nM with AsPC-1 cells.
On to `CO[C@H]1CCN(C)[C@@H]1[C@H](C)Oc1cc(-n2ccc(C(N)=O)n2)nc(-c2noc3c2CCC[C@@]32CCCc3sc(N)c(C#N)c32)n1` [II-201], for which the concentration for half-maximal inhibition (IC50) at KRAS (G12C)::SOS1 worked out at 1 nM; in experiment [1], 18 nM; with AsPC-1 cells it was 651 nM.
In the case of `C[C@H](Oc1cc(-c2ccn(C)n2)nc(-c2noc3c2CCC[C@@]32CCCc3sc(N)c(C#N)c32)n1)[C@@H]1C[C@H](F)CN1C` [II-144], the figures for the IC50 (at KRAS (G12C)::SOS1; in experiment [1]; in the experiment on AsPC-1 cells) were 3 nM, 4 nM and 7100 nM, respectively.
The like results for `CO[C@H]1CCN(C)[C@@H]1[C@H](C)Oc1cc(N2CCNC3(CC3)C2)nc(-c2noc3c2CCC[C@@]32CCCc3sc(N)c(C#N)c32)n1` [II-184] were, in that order, 2 nM, 1 nM and 8 nM.
In the case of `C[C@H](Oc1cc(N2CCNC[C@@]23CCOC3)nc(-c2onc3c2CCC[C@@]32CCCc3sc(N)c(C#N)c32)n1)[C@@H]1CCCN1C` [I-13], the 50% inhibitory concentration (IC50) came out at 7 nM at KRAS (G12C)::SOS1, 49 nM in experiment [1] and 1550 nM in the experiment on AsPC-1 cells.
The like results for `C[C@H](Oc1cc(-n2cc3c(n2)CNC3)nc(-c2noc3c2CCC[C@@]32CCCc3sc(N)c(C#N)c32)n1)[C@@H]1C[C@@H](F)CN1C` [II-154] were, in that order, 2 nM, 82 nM and 1010 nM.
`C[C@H](Oc1cc(-n2ccc(-c3cn(C4CCOCC4)nn3)n2)nc(-c2noc3c2CCC[C@@]32CCCc3sc(N)c(C#N)c32)n1)[C@@H]1CCCN1C` [II-210]: the results for the 50% inhibitory concentration (IC50) (on KRAS (G12C)::SOS1; in experiment [1]; in the experiment with AsPC-1 cells) were 2 nM, 23 nM and 210 nM, respectively.
Taken in the same sequence, the figures for `C[C@@H]1CN(c2cc(O[C@@H](C)[C@@H]3CCCN3C)nc(-c3noc4c3CCC[C@@]43CCCc4sc(N)c(C#N)c43)n2)CCN1` [II-161] were 5 nM, 250 nM and 1600 nM.
The like results for `C[C@H](Oc1cc(-n2cc3c(n2)CN(C)C3)nc(-c2noc3c2CCC[C@@]32CCCc3sc(N)c(C#N)c32)n1)[C@@H]1CCCN1C` [II-174] were, in that order, 2 nM, 16 nM and 103 nM.
Taken in the same sequence, the figures for `C[C@H](Oc1cc(-n2ccc(-c3cnccn3)n2)nc(-c2noc3c2CCC[C@@]32CCCc3sc(N)c(C#N)c32)n1)[C@@H]1CCCN1C` [II-130] were 2 nM, 45 nM and 1080 nM.
Consider `CO[C@@H]1C[C@@H]([C@H](C)Oc2cc(N3CCNC4(CC4)C3)nc(-c3noc4c3CCC[C@@]43CCCc4sc(N)c(C#N)c43)n2)N(C)C1` [II-187], for which the IC50 at KRAS (G12C)::SOS1 was found to be 2 nM; in experiment [1] it was 3 nM; in the experiment with AsPC-1 cells, 30 nM.
The like results for `C[C@H](Oc1cc(-n2cnc(C(=O)N(C)C)c2)nc(-c2noc3c2CCC[C@@]32CCCc3sc(N)c(C#N)c32)n1)[C@@H]1CCCN1C` [II-126] were, in that order, 2 nM, 211 nM and 10200 nM.
The like results for `C[C@H](Oc1cc(-n2cc3c(n2)CCN(C)C3)nc(-c2noc3c2CCC[C@@]32CCCc3sc(N)c(C#N)c32)n1)[C@@H]1CCCN1C` [II-141] were, in that order, 2 nM, 14 nM and 244 nM.
Taken in the same sequence, the figures for `[2H]C([2H])([2H])N1C[C@H](F)C[C@H]1[C@H](C)Oc1cc(N2CCN(C([2H])([2H])[2H])C3(CC3)C2)nc(-c2noc3c2CCC[C@@]32CCCc3sc(N)c(C#N)c32)n1` [II-207] were 6 nM, 18 nM and 82 nM.
As for `C[C@H](Oc1cc(N2CCN[C@@H](C)C2)nc(-c2noc3c2CCC[C@@]32CCCc3sc(N)c(C#N)c32)n1)[C@@H]1CCCN1C` [II-162], the IC50 at KRAS (G12C)::SOS1 came to 3 nM; in experiment [1], 41 nM; in the experiment with AsPC-1 cells it was 922 nM.
Taken in the same sequence, the figures for `C[C@H](Oc1cc(-n2cc3c(n2)CNC3)nc(-c2noc3c2CCC[C@@]32CCCc3sc(N)c(C#N)c32)n1)[C@@H]1CCCN1C` [II-168] were 2 nM, 27 nM and 778 nM.
The like results for `C[C@H](Oc1cc([C@H]2CCNC2)nc(-c2noc3c2CCC[C@@]32CCCc3sc(N)c(C#N)c32)n1)[C@@H]1CCCN1C` [II-163] were, in that order, 2 nM, 97 nM and 935 nM.
Taken in the same sequence, the figures for `CO[C@H]1CCN(C)[C@@H]1[C@H](C)Oc1cc(-n2ccc(C(=O)N[C@@H]3CCOC3)n2)nc(-c2noc3c2CCC[C@@]32CCCc3sc(N)c(C#N)c32)n1` [II-197] were 1 nM, 6 nM and 226 nM.
`C[C@H](Oc1nc(-c2noc3c2CCC[C@@]32CCCc3sc(N)c(C#N)c32)nc(N2CCN(C)C3(CC3)C2)c1Cl)[C@@H]1C[C@@H](F)CN1C` [II-176]: the 50% inhibitory concentration (IC50) turned out to be 15 nM on KRAS (G12C)::SOS1, 112 nM in experiment [1] and 851 nM in the experiment with AsPC-1 cells.
Take `C[C@H](Oc1nc(-c2noc3c2CCC[C@@]32CCCc3sc(N)c(C#N)c32)nc(N2C[C@H](C)NC3(CC3)C2)c1F)[C@@H]1C[C@@H](F)CN1C` [II-157]: the concentration for half-maximal inhibition (IC50) is 2 nM on KRAS (G12C)::SOS1, 17 nM in experiment [1] and 129 nM in the experiment with AsPC-1 cells.
On to `C[C@H](Oc1cc(C2=CCNCC2)nc(-c2noc3c2CCC[C@@]32CCCc3sc(N)c(C#N)c32)n1)[C@@H]1CCCN1C` [II-164], for which the half-maximal inhibitory concentration (IC50) at KRAS (G12C)::SOS1 was found to be 2 nM; in experiment [1], 66 nM; with AsPC-1 cells, 483 nM.
For `C[C@H](Oc1cc(-c2cccc(C(N)=O)c2)nc(-c2noc3c2CCC[C@@]32CCCc3sc(N)c(C#N)c32)n1)[C@@H]1CCCN1C` [II-133], the figures for the IC50 (on KRAS (G12C)::SOS1; in experiment [1]; in the experiment on AsPC-1 cells) were 2 nM, 248 nM and 2700 nM, respectively.
Taken in the same sequence, the figures for `C[C@H](Oc1cc(-n2cc3ccn([C@@H](C)c4ccccn4)c(=O)c3n2)nc(-c2noc3c2CCC[C@@]32CCCc3sc(N)c(C#N)c32)n1)[C@@H]1CCCN1C` [II-205] were 2 nM, 85 nM and 1310 nM.
In the case of `C[C@H](Oc1cc(-c2cn(C)nn2)nc(-c2onc3c2CCC[C@@]32CCCc3sc(N)c(C#N)c32)n1)[C@@H]1CCCN1C` [I-16], the 50% inhibitory concentration (IC50) came out at 2 nM on KRAS (G12C)::SOS1 and 32 nM in experiment [1].
Consider `C[C@H](Oc1nc(-c2noc3c2CCC[C@@]32CCCc3sc(N)c(C#N)c32)nc(N2CCNC3(CC3)C2)c1Cl)[C@@H]1C[C@@H](F)CN1C` [II-156], for which the IC50 on KRAS (G12C)::SOS1 turned out to be 2 nM; in experiment [1], 16 nM; with AsPC-1 cells, 86 nM.
Taken in the same sequence, the figures for `CC(=O)N1CCN(c2cc(O[C@@H](C)[C@@H]3CCCN3C)nc(-c3noc4c3CCC[C@@]43CCCc4sc(N)c(C#N)c43)n2)CC12CC2` [II-178] were 2 nM, 85 nM and 814 nM.
The like results for `CO[C@H]1CCN(C)[C@@H]1[C@H](C)Oc1cc(-n2ccc(C(=O)N[C@H]3CCOC3)n2)nc(-c2noc3c2CCC[C@@]32CCCc3sc(N)c(C#N)c32)n1` [II-198] were, in that order, 1 nM, 4 nM and 143 nM.
The like results for `CC(C)N1CCCN(c2cc(-c3ccn(C)n3)nc(-c3noc4c3CCC[C@@]43CCCc4sc(N)c(C#N)c43)n2)[C@@H](C)C1` [II-170] were, in that order, 3 nM, 89 nM and 3590 nM.
Take `C[C@H](Oc1cc(N2CCN(C)C3(CCOC3)C2)nc(-c2noc3c2CCC[C@@]32CCCc3sc(N)c(C#N)c32)n1)[C@@H]1C[C@@H](F)CN1C` (stereo partly drawn) [II-151]: the figures for the IC50 (at KRAS (G12C)::SOS1; in experiment [1]; in the experiment with AsPC-1 cells) were 8 nM, 53 nM and 714 nM, respectively.
Taken in the same sequence, the figures for `CC(C)N1CCCN(c2cc(-n3ccnc3)nc(-c3noc4c3CCC[C@@]43CCCc4sc(N)c(C#N)c43)n2)[C@@H](C)C1` [II-169] were 3 nM, 285 nM and 3730 nM.
In the case of `C[C@H]1CNCCCN1c1nc(-c2onc3c2CCC[C@@]32CCCc3sc(N)c(C#N)c32)cc(C(F)(F)F)n1` [I-15], the IC50 at KRAS (G12C)::SOS1 was determined as 299 nM; in experiment [1], 1130 nM.
